Experimental data taken from paper PMC3628991, “Synthesis and evaluation of cell-permeable biotinylated PU-H71 derivatives as tumor Hsp90 probes” (Beilstein Journal of Organic Chemistry, 2013).
Entries after “also recorded” stand apart in the source; their conditions may differ. Where two headings read alike, the source gives them in different places.

Assays:
[1] = system: tumor cell Hsp90 complexes (SKBr3 human breast cancer lysate); test: Hsp90 fluorescence polarization competition assay (GM-cy3B displacement) in SKBr3 cancer-cell lysate; format: binding; settings: read-out: Affinity for Hsp90 (FP)
Source text: The fraction of tracer bound to Hsp90 was correlated to the mP value and plotted against values of competitor concentrations. The inhibitor concentration at which 50% of bound GM was displaced was obtained by fitting the data.

K562 cells = test: Growth inhibition assay (Alamar Blue); format: cell-based; settings: Homo sapiens, K562, 72 h, read-out: IC50 Growth inhibition
Source text: (§1) Having shown that each of the prepared biotinylated molecules retained good affinity for Hsp90, we next evaluated these compounds in two functional read-outs that together measure that the probe has entered a live cancer cell and once inside the cell, has bound to a substantial fraction of oncogenic Hsp90 molecules. Specifically, K562 is a human leukemia cell line dependent on Hsp90 for survival. Thus, in such cells, occupancy of Hsp90’s regulatory pocket by small molecules results in inhibition of its cancer-sheltering properties, leading to cell-growth inhibition associated with degradation of Hsp90-chaperoned onco-proteins. These, such as is the case for Raf-1 in K562 cells, become ubiquitinated and targeted for proteasomal degradation leading to a decrease in their steady-state levels (Figure 2a, Raf-1).
Growth inhibition assay. The effect of compounds on cell growth was evaluated with the Alamar Blue assay. In summary, K562 cells were plated at 20,000 cells/well on Costar 96-well plates. Treatment with the probes added at the indicated concentrations in triplicate wells was performed on the subsequent day and lasted for 72 h. The Alamar Blue reagent resazurin (440 μM stock) was added at the end of the treatment to result in a final concentration of 50 μM. Plates were read 6 h later by using the Analyst GT instrument (Fluorescence intensity mode, excitation 530 nm, emission 580 nm, with 560 nm dichroic mirror). Results were analyzed in SoftMax Pro. The percentage of cell growth inhibition was calculated by comparing fluorescence readings obtained from treated versus control cells, accounting for the initial cell population (time zero). The IC50 was calculated as the drug concentration that inhibits cell growth by 50%.

Grp94 [2] = target: T1, Grp94 (Homo sapiens, UniProt P14625); settings: ref Chiosis G, personal communication; cited from earlier work
[3] = system: Raf-1 (Hsp90 onco-client) in K562 cells; test: Raf-1 steady-state levels by Western blot; format: cell-based, human; settings: for Effect on Raf-1 steady-state levels (Raf-1 degradation): K562 cells, 24 h, probes at 5, 10 and 20 µM; for Cancer-cell permeability / uptake: judged from Raf-1 degradation and growth inhibition in K562 cells
Source text: as §1
Western blotting. The K562 cell line was purchased from the American Type Culture Collection (Manassas, VA) and cultured in Roswell Park Memorial Institute (RPMI) supplemented with 10% fetal bovine serum, 1% L-glutamine, 1% penicillin and streptomycin. Cells were plated for 24 h prior to treatment for the indicated times with DMSO (vehicle) or with the indicated compounds. Protein extracts were prepared in 50 mM Tris pH 7.4, 150 mM NaCl and 1% NP-40 lysis buffer. Protein concentrations were measured by using the BCA kit (Pierce) according to the manufacturer's instructions. Protein lysates (50 μg) were resolved by SDS-PAGE, transferred onto nitrocellulose membrane and incubated with an anti-Raf-1 antibody from rabbit (1:500, sc-133, Santa Cruz) or anti-β-actin from mouse (1:2,500, A1978, Sigma-Aldrich). Membranes were then incubated with the corresponding peroxidase-conjugated secondary antibody (1:3,000 dilution) and visualized by the ECL detection reagent (Amersham).

Hsp90 [4] = test: Chemical precipitation (affinity purification on streptavidin beads) from K562 cell lysates; parameters: species or system human; settings: high-salt wash, Coomassie stain, 10, 25 and 50 µM
Procedure: Having identified which compounds were capable or not of permeating live cancer cells, we next wanted to determine whether the chain length was optimal to maintain concomitant binding to Hsp90 and streptavidin, so as to allow for isolation and identification of Hsp90/onco-client complexes from cancer cells. For this purpose, K562 lysates (Figure 2b and c) were incubated with the biotinylated ligands and the complexes captured on streptavidin beads. To test for the probe’s selectivity, pull-downs were performed with increasing concentrations of biotinylated derivatives (10, 25 and 50 µM; Figure 2c). Additionally, affinity-purified complexes were washed with high-salt buffer to remove Hsp90-bound co-chaperones and client proteins (Figure 2b and c).
(§2) Chemical precipitation from cell lysates. K562 cells were sonicated in 20 mM HEPES, pH 7.3, 50 mM KCl, 5 mM MgCl2, 20 mM Na2MoO4, and 0.01% NP40 lysis buffer containing added protease inhibitors. Affinity beads were prepared by addition of the biotinylated probes to the streptavidin agarose resin (40 μL) (Thermo Scientific), which was first washed three times with the lysis buffer. […] The protein extract (500 μg) was then added to the probe-bound beads, and samples were incubated at 4 °C overnight. Following five washes with lysis buffer, the protein isolates were subjected to SDS-PAGE.

[5] = system: Hsp90 and Hsp90/Raf-1 complexes; test: Chemical precipitation (affinity purification on streptavidin beads) from live K562 cells; format: cell-based, human; settings: for Isolation of Hsp90 in complex with onco-client protein Raf-1: live K562 cells, Coomassie and Raf-1 immunoblot; for Isolation of Hsp90 from live K562 cells (band at 90 kDa, Coomassie): live K562 cells incubated 4 h, then permeabilized, streptavidin beads
Procedure: To test for the probes’ ability to isolate Hsp90 in secondary and tertiary complexes, such as those containing onco-client proteins, affinity purifications were also performed from live K562 cancer cells (Figure 2d). In such a case, the biotinylated tool is added to live cells where the compound binds to Hsp90 in an onco-client-bound conformation, locking and preserving the endogenous Hsp90/protein complexes throughout the subsequent experimental steps (i.e., permeabilization). In contrast, when adding a biotinylated tool to cell homogenates, one may encounter two potential limitations. First, due to the dynamic nature of the Hsp90/client protein interactions, the endogenous complexes may be lost during the homogenization process and thus, pull-downs from homogenates may miss important interactors. Second, during homogenization, certain proteins may lose their well-regulated conformation and potentially aggregate. Such misfolded proteins are prone to be captured by chaperones resulting in “false positives” (i.e., nonendogenous Hsp90 client proteins). False positives increase the “background” on the affinity resin, and the higher the background, the poorer the identification of relevant endogenous Hsp90 complexes will be. Therefore, while it is true that following the addition of the biotinylated tool to cells, these are permeabilized or fixed/permeabilized and thus no longer alive, the capture of the oncogenic Hsp90 complexes takes place in the live cell.
Consequently, in live-cell experiments, cells were first incubated with the biotinylated PU-H71 derivatives to trap and maintain the onco-client complexed to Hsp90. Next, cells were ruptured into a physiological buffer containing molybdate. The purpose of this step is to release the proteins from the cell yet maintain the Hsp90/onco-client protein complexes intact. Following capture of these complexes on the streptavidin beads, complexes were applied to a denaturing gel, then probed by both Coomassie stain (Figure 2d, top panel) and immunoblot (Figure 2d, bottom panel Raf-1 blot).
Chemical precipitation from cells. K562 cells were treated with the indicated compounds for 4 h, after which cells were collected and washed three times with PBS. Protein extracts were prepared by sonicating cells in 20 mM HEPES, pH 7.3, 50 mM KCl, 5 mM MgCl2, 20 mM Na2MoO4, 0.01% NP40 lysis buffer. Streptavidin agarose beads (40 μL) (Thermo Scientific) were washed three times with the lysis buffer and added to 500 μg of the total cellular protein extract diluted in lysis buffer to a final volume of 120 μL. Samples were incubated at 4 °C for 1 h, washed five times with the lysis buffer (or high salt buffer containing 1 M NaCl added to the lysis buffer) and applied to SDS-PAGE. Gels were stained with Coomassie blue (BioRad) according to the manufacturer's instructions.

Hsp90 [6] = test: Affinity for Hsp90 paralogues: cytosolic Hsp90; format: binding; settings: paralogue comparison
Grp94 [7] = target: T1, Grp94; test: Affinity for Hsp90 paralogues: Grp94; format: binding; settings: paralogue comparison
[8] = system: cytosolic Hsp90 versus Grp94; test: Paralogue selectivity of affinity purification from K562 lysates (Western blot); parameters: species or system human; settings: overnight, probes 50 µM
Procedure: as §2

T1 sequence (P14625 22-803, species assumed): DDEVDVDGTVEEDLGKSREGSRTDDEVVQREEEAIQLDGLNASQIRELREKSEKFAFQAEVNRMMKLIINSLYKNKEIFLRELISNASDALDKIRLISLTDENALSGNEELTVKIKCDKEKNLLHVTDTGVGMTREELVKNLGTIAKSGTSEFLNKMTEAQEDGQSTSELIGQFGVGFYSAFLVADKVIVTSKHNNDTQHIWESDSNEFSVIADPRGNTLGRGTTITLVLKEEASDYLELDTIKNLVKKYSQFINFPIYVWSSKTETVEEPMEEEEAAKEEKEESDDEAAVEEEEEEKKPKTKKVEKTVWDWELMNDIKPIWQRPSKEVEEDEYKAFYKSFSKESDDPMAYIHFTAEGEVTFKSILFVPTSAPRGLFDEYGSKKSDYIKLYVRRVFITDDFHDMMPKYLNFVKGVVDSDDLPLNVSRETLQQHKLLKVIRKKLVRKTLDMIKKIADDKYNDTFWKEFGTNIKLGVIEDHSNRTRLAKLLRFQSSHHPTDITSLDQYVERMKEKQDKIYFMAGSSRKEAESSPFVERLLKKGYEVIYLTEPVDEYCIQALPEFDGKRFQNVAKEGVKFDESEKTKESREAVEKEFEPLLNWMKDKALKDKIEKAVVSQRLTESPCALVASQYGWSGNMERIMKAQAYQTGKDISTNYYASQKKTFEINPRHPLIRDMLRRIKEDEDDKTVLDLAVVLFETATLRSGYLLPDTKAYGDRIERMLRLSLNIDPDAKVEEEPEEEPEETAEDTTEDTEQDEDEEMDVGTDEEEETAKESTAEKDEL

| Structure (SMILES) | IC50 (K562 cells; Figure 2a, Alamar Blue) | Affinity for Grp94 (Grp94 [7]) | EC50 [1] | IC50 (K562 cells) | Binding to cytosolic and ER Hsp90 paralogues (Grp94 [2]) | Effect on Raf-1 steady-state levels (Raf-1 degradation) [3] | Isolation of Hsp90 from K562 lysates on streptavidin beads (Hsp90 [4]) | Isolation of Hsp90 in complex with onco-client protein Raf-1 [5] | Affinity for Hsp90 (Hsp90 [6]) | Preference in affinity purification of cytosolic Hsp90 over Grp94 [8] | Isolation of Hsp90 from live K562 cells (band at 90 kDa, Coomassie) [5] | Cancer-cell permeability / uptake [3] |
| --- | --- | --- | --- | --- | --- | --- | --- | --- | --- | --- | --- | --- |
| CC(C)NCCCn1c(Sc2cc3c(cc2I)OCO3)nc2c(N)ncnc21 [1a, PU-H71] | – | – | 0.0245 µM | 0.08 µM | binds equally well to the cytosolic and the ER paralogues | – | – | – | – | – | – | – |
| Nc1ncnc2c1nc(Sc1cc3c(cc1I)OCO3)n2CCCNC(=O)CCCC[C@@H]1SC[C@@H]2NC(=O)N[C@@H]21 [2c] | 0.25 µM | – | – | – | – | almost complete Raf-1 degradation | unable to affinity purify Hsp90 | – | – | – | faint band or no band at 90 kDa | – |
| CC(C)N(CCCn1c(Sc2cc3c(cc2I)OCO3)nc2c(N)ncnc21)C(=O)CCCCCNC(=O)CCCCCNC(=O)CCCC[C@@H]1SC[C@@H]2NC(=O)N[C@@H]21 [2f] | 4.96 µM | 210 nM | – | – | – | failed to exhibit such properties; also recorded: to some degree | isolated substantial amounts of Hsp90 | Most efficient | 98 nM | substantial preference | – | – |
| NCCCn1c(Sc2cc3c(cc2I)OCO3)nc2c(N)ncnc21 [1b] | – | – | 0.026 µM | – | – | – | – | – | – | – | – | – |
| CC(C)N(CCCn1c(Sc2cc3c(cc2I)OCO3)nc2c(N)ncnc21)C(=O)CCCC[C@@H]1SC[C@@H]2NC(=O)N[C@@H]21 [2b] | 2.63 µM | – | – | – | – | almost complete Raf-1 degradation | unable to affinity purify Hsp90 | – | – | – | faint band or no band at 90 kDa | – |
| Nc1ncnc2c1nc(Sc1cc3c(cc1I)OCO3)n2CCCNC(=O)CCCCCNC(=O)CCCCCNC(=O)CCCC[C@@H]1SC[C@@H]2NC(=O)N[C@@H]21 [2g] | 1.13 µM | 451 nM | – | – | – | almost complete Raf-1 degradation | isolated substantial amounts of Hsp90 | Most efficient | 45 nM | substantial preference | – | substantially taken up by the cancer cell; also recorded: good permeability |
| CC(C)N(CCCn1c(Sc2cc3c(cc2I)OCO3)nc2c(N)ncnc21)C(=O)CCCCCNC(=O)CCCC[C@@H]1SC[C@@H]2NC(=O)N[C@@H]21 [2d] | 2.19 µM | – | – | – | – | almost complete Raf-1 degradation | – | – | – | – | faint band or no band at 90 kDa | – |

Continued, in another order:

| IC50 (K562 cells; Figure 2a, Alamar Blue) | Affinity for Grp94 (Grp94 [7]) | Structure (SMILES) | EC50 [1] | IC50 (K562 cells) | Binding to cytosolic and ER Hsp90 paralogues (Grp94 [2]) | Effect on Raf-1 steady-state levels (Raf-1 degradation) [3] | Isolation of Hsp90 from K562 lysates on streptavidin beads (Hsp90 [4]) | Isolation of Hsp90 in complex with onco-client protein Raf-1 [5] | Affinity for Hsp90 (Hsp90 [6]) | Preference in affinity purification of cytosolic Hsp90 over Grp94 [8] | Isolation of Hsp90 from live K562 cells (band at 90 kDa, Coomassie) [5] | Cancer-cell permeability / uptake [3] |
| --- | --- | --- | --- | --- | --- | --- | --- | --- | --- | --- | --- | --- |
| 7.01 µM | 313 nM | CC(C)N(CCCn1c(Sc2cc3c(cc2I)OCO3)nc2c(N)ncnc21)C(=O)CCOCCOCCOCCOCCNC(=O)CCCC[C@@H]1SC[C@@H]2NC(=O)N[C@@H]21 [2h] | – | – | – | failed to exhibit such properties; also recorded: failed to substantially degrade Raf-1 | isolated substantial amounts of Hsp90 | Most efficient | 137 nM | substantial preference | – | – |
| 5 µM | – | Nc1ncnc2c1nc(Sc1cc3c(cc1I)OCO3)n2CCCNCCOCCOCCOCCNC(=O)CCCC[C@@H]1SC[C@@H]2NC(=O)N[C@@H]21 [2a] | – | – | – | – | modest probe for affinity purifications | – | – | – | – | poor cancer-cell permeability |
| 1.35 µM | – | Nc1ncnc2c1nc(Sc1cc3c(cc1I)OCO3)n2CCCNC(=O)CCCCCNC(=O)CCCC[C@@H]1SC[C@@H]2NC(=O)N[C@@H]21 [2e] | – | – | – | almost complete Raf-1 degradation | unable to affinity purify Hsp90 | – | – | – | faint band or no band at 90 kDa | – |
| 8.59 µM | 226 nM | Nc1ncnc2c1nc(Sc1cc3c(cc1I)OCO3)n2CCCNC(=O)CCOCCOCCOCCOCCNC(=O)CCCC[C@@H]1SC[C@@H]2NC(=O)N[C@@H]21 [2i] | – | – | – | failed to exhibit such properties; also recorded: failed to substantially degrade Raf-1 | isolated substantial amounts of Hsp90 | Most efficient | 83 nM | substantial preference | – | – |
